{
  "source": "PubChem BioAssay AID1259407",
  "about": "(Chemical Carcinogenesis Research Information System (CCRIS), 2018)",
  "tested_on": "CCRIS mutagenicity, Ames/micronucleus/aberration tests",
  "assay": "CCRIS mutagenicity studies",
  "conditions": "Test System: AMES SALMONELLA TYPHIMURIUM, Method: STANDARD PLATE",
  "note": "The source made the active and inactive calls. The rule behind the calls is not given here.",
  "data": [
    {"smiles": "COc1c2c(cc3oc4c(CCC(C)(C)O)ccc(O)c4c(=O)c13)O[C@H]1OC=C[C@@H]21", "values": [
      {"measurement": "mutagenic call", "setting": "Strain/Indicator: TA98, Metabolic Activation: NONE", "value": "active; positive"},
      {"measurement": "mutagenic call", "setting": "Strain/Indicator: TA98, Metabolic Activation: RAT, LIVER, S-9, AROCLOR 1254", "value": "active; positive"},
      {"measurement": "mutagenic call", "setting": "Strain/Indicator: TA100, Metabolic Activation: NONE", "value": "inactive; negative"},
      {"measurement": "mutagenic call", "setting": "Strain/Indicator: TA100, Metabolic Activation: RAT, LIVER, S-9, AROCLOR 1254", "value": "active; positive"}
    ]}
  ]
}
